Source: patent US11123337B2, “4-methylsulfonyl-substituted piperidine urea compounds” (MYOKARDIA, INC., priority 2015, dated 2021)

Target: bovine cardiac myosin (Bos taurus, UniProt Q9BE39)
Assay: Myosin activation assay (PK/LDH-coupled ATPase, bovine cardiac myofibrils)
Assay type: biochemical
Details: AC20 = concentration at which total response is increased by twenty percent
Method in brief: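 Skinned bovine cardiac myofibrils (1 mg/mL) in PIPES/MgCl2 buffer pH 6.8 at free Ca2+ giving ~50% (pCa ~6) or <5% (pCa 10) activation, with 50 μM ATP and 3.3% DMSO. ATPase rate from NADH absorbance at 340 nm (PK/LDH coupling) over 15 min at ambient temperature. AC20/AC50 from a four-parameter fit of DMSO-normalised rates.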

Chain of bovine cardiac myosin (Q9BE39 whole entry): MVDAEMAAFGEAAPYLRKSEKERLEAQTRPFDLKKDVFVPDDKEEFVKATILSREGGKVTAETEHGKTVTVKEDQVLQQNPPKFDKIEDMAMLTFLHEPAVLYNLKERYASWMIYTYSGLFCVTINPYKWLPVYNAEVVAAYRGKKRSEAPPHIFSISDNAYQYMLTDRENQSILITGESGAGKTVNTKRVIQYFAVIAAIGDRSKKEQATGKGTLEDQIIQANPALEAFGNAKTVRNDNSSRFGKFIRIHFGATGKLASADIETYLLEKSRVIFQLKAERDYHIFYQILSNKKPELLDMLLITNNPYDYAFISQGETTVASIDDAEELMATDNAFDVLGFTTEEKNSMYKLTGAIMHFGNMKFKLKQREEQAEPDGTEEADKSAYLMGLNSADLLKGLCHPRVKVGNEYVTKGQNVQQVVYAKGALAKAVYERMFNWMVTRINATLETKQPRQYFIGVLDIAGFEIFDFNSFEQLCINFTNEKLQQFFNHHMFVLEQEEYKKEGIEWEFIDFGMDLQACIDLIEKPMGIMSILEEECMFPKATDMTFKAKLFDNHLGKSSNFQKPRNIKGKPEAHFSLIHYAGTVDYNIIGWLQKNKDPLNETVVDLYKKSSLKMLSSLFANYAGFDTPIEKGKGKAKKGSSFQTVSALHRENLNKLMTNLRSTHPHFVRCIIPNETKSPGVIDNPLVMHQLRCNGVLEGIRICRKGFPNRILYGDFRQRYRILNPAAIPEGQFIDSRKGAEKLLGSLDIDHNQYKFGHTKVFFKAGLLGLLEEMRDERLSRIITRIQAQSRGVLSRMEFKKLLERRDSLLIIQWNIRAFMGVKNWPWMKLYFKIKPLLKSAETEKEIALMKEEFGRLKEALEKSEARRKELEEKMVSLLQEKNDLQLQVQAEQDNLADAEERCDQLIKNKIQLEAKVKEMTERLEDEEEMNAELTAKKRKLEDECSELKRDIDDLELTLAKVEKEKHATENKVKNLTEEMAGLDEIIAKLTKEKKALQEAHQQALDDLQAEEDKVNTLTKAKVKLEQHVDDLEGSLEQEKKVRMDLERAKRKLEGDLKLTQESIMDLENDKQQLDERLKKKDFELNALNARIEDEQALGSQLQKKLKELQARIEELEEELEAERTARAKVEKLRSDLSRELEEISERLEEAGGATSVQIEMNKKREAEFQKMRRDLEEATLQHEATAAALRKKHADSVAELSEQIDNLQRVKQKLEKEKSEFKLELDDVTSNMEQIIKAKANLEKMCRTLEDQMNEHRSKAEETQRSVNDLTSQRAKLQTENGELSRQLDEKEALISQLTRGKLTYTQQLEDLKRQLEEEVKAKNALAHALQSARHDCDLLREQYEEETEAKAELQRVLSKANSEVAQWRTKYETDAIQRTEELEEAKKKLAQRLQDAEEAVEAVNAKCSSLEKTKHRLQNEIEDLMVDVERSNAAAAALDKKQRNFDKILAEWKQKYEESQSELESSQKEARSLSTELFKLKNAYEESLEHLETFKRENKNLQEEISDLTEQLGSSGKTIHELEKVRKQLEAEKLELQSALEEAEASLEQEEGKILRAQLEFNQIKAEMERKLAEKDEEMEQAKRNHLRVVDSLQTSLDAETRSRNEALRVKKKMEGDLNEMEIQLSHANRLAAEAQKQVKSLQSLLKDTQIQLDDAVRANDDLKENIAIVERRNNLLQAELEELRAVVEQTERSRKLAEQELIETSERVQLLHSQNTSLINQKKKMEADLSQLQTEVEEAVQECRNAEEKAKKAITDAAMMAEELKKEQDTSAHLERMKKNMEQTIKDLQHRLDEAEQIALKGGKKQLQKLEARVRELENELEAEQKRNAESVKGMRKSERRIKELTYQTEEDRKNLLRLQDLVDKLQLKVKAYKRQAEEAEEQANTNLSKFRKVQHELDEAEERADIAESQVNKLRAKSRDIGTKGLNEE
Chain of bovine cardiac myosin (P85100 whole entry partner): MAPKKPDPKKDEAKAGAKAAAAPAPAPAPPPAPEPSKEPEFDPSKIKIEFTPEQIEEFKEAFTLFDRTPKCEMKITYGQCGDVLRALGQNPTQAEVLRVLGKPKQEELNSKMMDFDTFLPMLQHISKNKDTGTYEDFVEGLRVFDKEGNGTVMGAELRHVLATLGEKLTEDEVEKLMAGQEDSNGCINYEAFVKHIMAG
Chain of bovine cardiac myosin (Q3SZE5 whole entry partner): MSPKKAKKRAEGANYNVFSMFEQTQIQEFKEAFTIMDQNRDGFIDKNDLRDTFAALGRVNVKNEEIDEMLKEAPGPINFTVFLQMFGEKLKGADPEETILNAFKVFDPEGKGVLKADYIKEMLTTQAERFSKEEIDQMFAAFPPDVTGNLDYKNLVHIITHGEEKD

| Structure (SMILES) | Myosin Activation (AC20) |
| --- | --- |
| Cc1cc(S(=O)(=O)C(F)(F)C2CCN(C(=O)Nc3ccnnc3)CC2)n(C(C)C)n1 [Compound 87, 4-(difluoro((1-isopropyl-3-methyl-1H-pyrazol-5-yl)sulfonyl)methyl)-N-(pyridazin-4-yl)piperidine-1-carboxamide] | + (+ represents myosin activation value AC20 > 5 μM) |
| O=C(Nc1ccnnc1)N1CCC(C(F)(F)S(=O)(=O)c2ccc(O)nc2)CC1 [Compound 88, 4-(difluoro((6-hydroxypyridin-3-yl)sulfonyl)methyl)-N-(pyridazin-4-yl)piperidine-1-carboxamide] | + (+ represents myosin activation value AC20 > 5 μM) |
| Cn1nc(C(C)(C)C)cc1S(=O)(=O)C(F)(F)C1CCN(C(=O)Nc2ccnnc2)CC1 [Compound 89, 4-(((3-(tert-butyl)-1-methyl-1H-pyrazol-5-yl)sulfonyl)difluoromethyl)-N-(pyridazin-4-yl)piperidine-1-carboxamide] | + (+ represents myosin activation value AC20 > 5 μM) |
| Cc1cc(S(=O)(=O)C(F)(F)C2CCN(C(=O)Nc3ccnnc3)CC2)n(C2CC2)n1 [Compound 90, 4-(((1-cyclopropyl-3-methyl-1H-pyrazol-5-yl)sulfonyl)difluoromethyl)-N-(pyridazin-4-yl)piperidine-1-carboxamide] | + (+ represents myosin activation value AC20 > 5 μM) |
| O=C(Nc1ccnnc1)N1CCC(C(F)(F)S(=O)(=O)c2ccc3ccnn3c2)CC1 [Compound 91, 4-(difluoro(pyrazolo[1,5-a]pyridin-6-ylsulfonyl)methyl)-N-(pyridazin-4-yl)piperidine-1-carboxamide] | ++ (++ represents myosin activation value AC20 from 2 μM-5 μM) |
| O=C(Nc1ccnnc1)N1CCC(C(F)(F)S(=O)(=O)c2ccc(O)cc2Cl)CC1 [Compound 92, 4-(((2-chloro-4-hydroxyphenyl)sulfonyl)difluoromethyl)-N-(pyridazin-4-yl)piperidine-1-carboxamide] | ++ (++ represents myosin activation value AC20 from 2 μM-5 μM) |
| O=C(Nc1ccnnc1)N1CCC(C(F)(F)S(=O)(=O)c2cnn3ccccc23)CC1 [Compound 93, 4-(difluoro(pyrazolo[1,5-a]pyridin-3-ylsulfonyl)methyl)-N-(pyridazin-4-yl)piperidine-1-carboxamide] | ++ (++ represents myosin activation value AC20 from 2 μM-5 μM) |
| Cn1nccc1S(=O)(=O)C(F)(F)C1CCN(C(=O)Nc2ccnnc2)CC1 [Compound 94, 4-(difluoro((1-methyl-1H-pyrazol-5-yl)sulfonyl)methyl)-N-(pyridazin-4-yl)piperidine-1-carboxamide] | + (+ represents myosin activation value AC20 > 5 μM) |
| O=C(Nc1ccnnc1)N1CCC(C(F)(F)S(=O)(=O)c2ccccc2-n2cccn2)CC1 [Compound 95, 4-(((2-(1H-pyrazol-1-yl)phenyl)sulfonyl)difluoromethyl)-N-(pyridazin-4-yl)piperidine-1-carboxamide] | + (+ represents myosin activation value AC20 > 5 μM) |
| CN(C)c1ncccc1S(=O)(=O)C(F)(F)C1CCN(C(=O)Nc2ccnnc2)CC1 [Compound 96, 4-(((2-(dimethylamino)pyridin-3-yl)sulfonyl)difluoromethyl)-N-(pyridazin-4-yl)piperidine-1-carboxamide] | + (+ represents myosin activation value AC20 > 5 μM) |
| C[C@H](O)c1cc(NC(=O)N2CCC(C(F)(F)S(=O)(=O)c3cccc(F)c3)CC2)ccn1 [Compound 97, (S)-4-(difluoro((3-fluorophenyl)sulfonyl)methyl)-N-(2-(1-hydroxyethyl)pyridin-4-yl)piperidine-1-carboxamide] | + (+ represents myosin activation value AC20 > 5 μM) |
| C[C@@H](O)c1cc(NC(=O)N2CCC(C(F)(F)S(=O)(=O)c3cccc(F)c3)CC2)ccn1 [Compound 98, (R)-4-(difluoro((3-fluorophenyl)sulfonyl)methyl)-N-(2-(1-hydroxyethyl)pyridin-4-yl)piperidine-1-carboxamide] | + (+ represents myosin activation value AC20 > 5 μM) |
| C[C@H](O)c1cc(NC(=O)N2CCC(C(F)(F)S(=O)(=O)c3cn(C)nc3C(F)F)CC2)ccn1 [Compound 99, (S)-4-(((3-(difluoromethyl)-1-methyl-1H-pyrazol-4-yl)sulfonyl)difluoromethyl)-N-(2-(1-hydroxyethyl)pyridin-4-yl)piperidine-1-carboxamide] | + (+ represents myosin activation value AC20 > 5 μM) |
| C[C@@H](O)c1cc(NC(=O)N2CCC(C(F)(F)S(=O)(=O)c3cn(C)nc3C(F)F)CC2)ccn1 [Compound 100, (R)-4-(((3-(difluoromethyl)-1-methyl-1H-pyrazol-4-yl)sulfonyl)difluoromethyl)-N-(2-(1-hydroxyethyl)pyridin-4-yl)piperidine-1-carboxamide] | + (+ represents myosin activation value AC20 > 5 μM) |
| Cn1cc(S(=O)(=O)C(F)(F)C2CCN(C(=O)Nc3ccnc(CO)c3)CC2)c(C(F)F)n1 [Compound 101, 4-(((3-(difluoromethyl)-1-methyl-1H-pyrazol-4-yl)sulfonyl)difluoromethyl)-N-(2-(hydroxymethyl)pyridin-4-yl)piperidine-1-carboxamide] | ++ (++ represents myosin activation value AC20 from 2 μM-5 μM) |
| CC(C)(C1CCN(C(=O)Nc2ccon2)CC1)S(=O)(=O)c1ccc(C#N)cc1 [Compound 102, 4-(2-((4-cyanophenyl)sulfonyl)propan-2-yl)-N-(isoxazol-3-yl)piperidine-1-carboxamide] | + (+ represents myosin activation value AC20 > 5 μM) |
| Cn1cc(S(=O)(=O)C(C)(C)C2CCN(C(=O)Nc3ccnnc3)CC2)c(Cl)n1 [Compound 103, 4-(2-((3-chloro-1-methyl-1H-pyrazol-4-yl)sulfonyl)propan-2-yl)-N-(pyridazin-4-yl)piperidine-1-carboxamide] | ++ (++ represents myosin activation value AC20 from 2 μM-5 μM) |
| CC(C)(C1CCN(C(=O)Nc2ccc(F)nc2)CC1)S(=O)(=O)c1ccc(C(F)(F)F)nc1 [Compound 104, N-(6-fluoropyridin-3-yl)-4-(2-((6-(trifluoromethyl)pyridin-3-yl)sulfonyl)propan-2-yl)piperidine-1-carboxamide] | + (+ represents myosin activation value AC20 > 5 μM) |
| Cn1nc(C(F)F)cc1S(=O)(=O)C(C)(C)C1CCN(C(=O)Nc2ccnc(F)c2)CC1 [Compound 105, 4-(2-((3-(difluoromethyl)-1-methyl-1H-pyrazol-5-yl)sulfonyl)propan-2-yl)-N-(2-fluoropyridin-4-yl)piperidine-1-carboxamide] | +++ (+++ represents myosin activation value AC20 < 2 μM) |
| Cn1nc(C(F)F)cc1S(=O)(=O)C(C)(C)C1CCN(C(=O)Nc2ccc(F)nc2)CC1 [Compound 106, 4-(2-((3-(difluoromethyl)-1-methyl-1H-pyrazol-5-yl)sulfonyl)propan-2-yl)-N-(6-fluoropyridin-3-yl)piperidine-1-carboxamide] | ++ (++ represents myosin activation value AC20 from 2 μM-5 μM) |
| Cc1ccc(NC(=O)N2CCC(C(C)(C)S(=O)(=O)c3cc(C(F)F)nn3C)CC2)cn1 [Compound 107, 4-(2-((3-(difluoromethyl)-1-methyl-1H-pyrazol-5-yl)sulfonyl)propan-2-yl)-N-(6-methylpyridin-3-yl)piperidine-1-carboxamide] | ++ (++ represents myosin activation value AC20 from 2 μM-5 μM) |
| Cn1nc(C(F)F)cc1S(=O)(=O)C(C)(C)C1CCN(C(=O)Nc2ccon2)CC1 [Compound 108, 4-(2-((3-(difluoromethyl)-1-methyl-1H-pyrazol-5-yl)sulfonyl)propan-2-yl)-N-(isoxazol-3-yl)piperidine-1-carboxamide] | ++ (++ represents myosin activation value AC20 from 2 μM-5 μM) |
| CC(C)(C1CCN(C(=O)Nc2ccc(F)nc2)CC1)S(=O)(=O)c1ccc(C#N)cc1 [Compound 109, 4-(2-((4-cyanophenyl)sulfonyl)propan-2-yl)-N-(6-fluoropyridin-3-yl)piperidine-1-carboxamide] | + (+ represents myosin activation value AC20 > 5 μM) |
| Cn1cc(S(=O)(=O)C(C)(C)C2CCN(C(=O)Nc3cn[nH]c3)CC2)c(C(F)(F)F)n1 [Compound 110, 4-(2-((1-methyl-3-(trifluoromethyl)-1H-pyrazol-4-yl)sulfonyl)propan-2-yl)-N-(1H-pyrazol-4-yl)piperidine-1-carboxamide] | ++ (++ represents myosin activation value AC20 from 2 μM-5 μM) |
| Cn1cc(S(=O)(=O)C(C)(C)C2CCN(C(=O)Nc3ccc(F)nc3)CC2)c(C(F)(F)F)n1 [Compound 111, N-(6-fluoropyridin-3-yl)-4-(2-((1-methyl-3-(trifluoromethyl)-1H-pyrazol-4-yl)sulfonyl)propan-2-yl)piperidine-1-carboxamide] | ++ (++ represents myosin activation value AC20 from 2 μM-5 μM) |
| CC(C)(C1CCN(C(=O)Nc2ccon2)CC1)S(=O)(=O)c1cccc(C#N)c1 [Compound 112, 4-(2-((3-cyanophenyl)sulfonyl)propan-2-yl)-N-(isoxazol-3-yl)piperidine-1-carboxamide] | ++ (++ represents myosin activation value AC20 from 2 μM-5 μM) |
| CC(C)(C1CCN(C(=O)Nc2ccon2)CC1)S(=O)(=O)c1ccc(C(F)(F)F)nc1 [Compound 113, N-(isoxazol-3-yl)-4-(2-((6-(trifluoromethyl)pyridin-3-yl)sulfonyl)propan-2-yl)piperidine-1-carboxamide] | + (+ represents myosin activation value AC20 > 5 μM) |
| Cn1nc(Cl)cc1S(=O)(=O)C(C)(C)C1CCN(C(=O)Nc2ccc(F)nc2)CC1 [Compound 114, 4-(2-((3-chloro-1-methyl-1H-pyrazol-5-yl)sulfonyl)propan-2-yl)-N-(6-fluoropyridin-3-yl)piperidine-1-carboxamide] | +++ (+++ represents myosin activation value AC20 < 2 μM) |
